Reference: patent US11377469B2, “CD73 inhibitors” (ORIC Pharmaceuticals, Inc., priority 2017, dated 2022)

The molecules below were run against CD73 (Homo sapiens (Human), UniProt P21589) (assay: Biochemical Assay (CD73 inhibition, AMP hydrolysis, Malachite Green readout)). Settings: CD73 0.3208 nM, AMP 15 μM, Tris-HCl pH 7.4, Malachite Green absorbance.
Sequence of CD73 (P21589 27-574): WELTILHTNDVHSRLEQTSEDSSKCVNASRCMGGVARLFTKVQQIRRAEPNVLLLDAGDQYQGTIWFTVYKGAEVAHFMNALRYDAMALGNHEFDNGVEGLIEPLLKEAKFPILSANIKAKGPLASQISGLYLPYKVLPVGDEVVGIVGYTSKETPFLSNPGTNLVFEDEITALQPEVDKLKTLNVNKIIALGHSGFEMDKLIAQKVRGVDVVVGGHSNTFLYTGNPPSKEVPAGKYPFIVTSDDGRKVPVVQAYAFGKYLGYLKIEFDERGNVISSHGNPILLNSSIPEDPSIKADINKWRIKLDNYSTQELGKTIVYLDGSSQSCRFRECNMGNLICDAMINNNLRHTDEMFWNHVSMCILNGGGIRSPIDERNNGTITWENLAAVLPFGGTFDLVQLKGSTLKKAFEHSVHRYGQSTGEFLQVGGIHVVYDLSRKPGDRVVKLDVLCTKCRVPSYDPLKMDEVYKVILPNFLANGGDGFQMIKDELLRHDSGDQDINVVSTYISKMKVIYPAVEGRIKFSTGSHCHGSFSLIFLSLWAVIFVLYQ

| Compound | IC50 [nM] |
| --- | --- |
| C[C@@H](OCP(=O)(O)O)[C@H]1O[C@@H](n2ncc3c(NCc4ccccc4Cl)nc(Cl)nc32)[C@H](O)[C@@H]1O [Example 60, (((R)-1-((2S,3S,4R,5R)-5-(6-chloro-4-((2-chlorobenzyl)amino)-1H-pyrazolo[3,4-d]pyrimidin-1-yl)-3,4-dihydroxytetrahydrofuran-2-yl)ethoxy)methyl)phosphonic acid] | > 1000 |
| C[C@@H](c1cccc(Cl)c1)N(C)c1nc(Cl)nc2c1cnn2[C@@H]1O[C@H](COCP(=O)(O)O)[C@@H](O)[C@H]1O [Example 36] | > 1000 |
| CN(Cc1ccccc1Cl)c1nc(Cl)nc2c1nnn2[C@@H]1O[C@H](COCP(=O)(O)O)[C@@H](O)[C@H]1O [Example 59, ((((2R,3S,4R,5R)-5-(5-chloro-7-((2-chlorobenzyl)(methyl)amino)-3H-[1,2,3]triazolo[4,5-d]pyrimidin-3-yl)-3,4-dihydroxytetrahydrofuran-2-yl)methoxy)methyl)phosphonic acid] | ≤ 500 |
| O=P(O)(O)CS(=O)(=O)C[C@H]1O[C@@H](n2ncc3c(NC4CCCC4)nc(Cl)nc32)[C@H](O)[C@@H]1O [Example 66, (((((2S,3S,4R,5R)-5-(6-chloro-4-(cyclopentylamino)-1H-pyrazolo[3,4-d]pyrimidin-1-yl)-3,4-dihydroxytetrahydrofuran-2-yl)methyl)sulfonyl)methyl)phosphonic acid] | ≤ 500 |
| Cn1ncc2cccc(CNc3nc(Cl)nc4c3cnn4[C@@H]3O[C@H](COCP(=O)(O)O)[C@@H](O)[C@H]3O)c21 [Example 48, ((((2R,3S,4R,5R)-5-(6-chloro-4-(((1-methyl-1H-indazol-7-yl)methyl)amino)-1H-pyrazolo[3,4-d]pyrimidin-1-yl)-3,4-dihydroxytetrahydrofuran-2-yl)methoxy)methyl)phosphonic acid] | ≤ 500 |

More lines, now with the values ahead:

| IC50 [nM] | Compound |
| --- | --- |
| ≤ 500 | CC(C)Nc1nc(Cl)nc2c1cnn2[C@@H]1O[C@H](COCP(=O)(O)O)[C@@H](O)[C@H]1O [Example 74, ((((2R,3S,4R,5R)-5-(6-chloro-4-(isopropylamino)-1H-pyrazolo[3,4-d]pyrimidin-1-yl)-3,4-dihydroxytetrahydrofuran-2-yl)methoxy)methyl)phosphonic acid] |
| ≤ 500 | O=P(O)(O)COC[C@H]1O[C@@H](n2ncc3c(NC4CCOCC4)nc(Cl)nc32)[C@H](O)[C@@H]1O [Example 73, ((((2R,3S,4R,5R)-5-(6-chloro-4-((tetrahydro-2H-pyran-4-yl)amino)-1H-pyrazolo[3,4-d]pyrimidin-1-yl)-3,4-dihydroxytetrahydrofuran-2-yl)methoxy)methyl)phosphonic acid] |
| ≤ 500 | O=P(O)(O)CS(=O)(=O)C[C@H]1O[C@@H](n2nnc3c(NC4CCC4)nc(Cl)nc32)[C@H](O)[C@@H]1O [Example 110, (((((2S,3S,4R,5R)-5-(5-chloro-7-(cyclobutylamino)-3H-[1,2,3]triazolo[4,5-d]pyrimidin-3-yl)-3,4-dihydroxytetrahydrofuran-2-yl)methyl)sulfonyl)methyl)phosphonic acid] |
| ≤ 500 | C[C@]1(O)C[C@@H](CNc2nc(Cl)nc3c2cnn3[C@@H]2O[C@H](COCP(=O)(O)O)[C@@H](O)[C@H]2O)C1 [Example 89, ((((2R,3S,4R,5R)-5-(6-chloro-4-((((1s,3S)-3-hydroxy-3-methylcyclobutyl)methyl)amino)-1H-pyrazolo[3,4-d]pyrimidin-1-yl)-3,4-dihydroxytetrahydrofuran-2-yl)methoxy)methyl)phosphonic acid] |
| > 1000 | Cc1cc2c(NCC3CC3)nc(Cl)nc2n1[C@@H]1O[C@H](COCP(=O)(O)O)[C@@H](O)[C@H]1O [Example 97, ((((2R,3S,4R,5R)-5-(2-chloro-4-((cyclopropylmethyl)amino)-6-methyl-7H-pyrrolo[2,3-d]pyrimidin-7-yl)-3,4-dihydroxytetrahydrofuran-2-yl)methoxy)methyl)phosphonic acid] |
